Experiments:
[1] = tested on: mixed species biofilm; experiment: Seahorse XFe Extracellular Flux Analyzer, bacterial metabolism (OCR/ECAR) in mixed species biofilm; type: cell-based; conditions: oxygen consumption rate
Protocol: (§1) Samples with varying amounts of cannabidiol (CBD) are assessed for their effects on cellular metabolism with and without various source of zinc. Using the Seahorse XF^e Extracellular Flux Analyzer, biofilm samples are grown for 48 hrs. […] The biofilms are harvested for culture. Diluted biofilm and toothpaste slurry are loaded to each well. Glycolysis—Extracellular Acidification Rate (ECAR) and Mitochondrial Respiration—Oxygen Consumption Rate (OCR) is measured for 25-50 cycles (˜360 minutes). […] The “CBD Oil” is 5% CBD (by wt. of the CBD Oil) in Hemp seed oil.
Where the “OCR” is oxygen consumption rate units as measured using the Seahorse XF^e Extracellular Flux Analyzer.: […]

[2] = tested on: S. mutans biofilms; experiment: Seahorse XFe Extracellular Flux Analyzer, bacterial metabolism (OCR/ECAR) in S. mutans biofilm; type: cell-based; conditions: CBD and arginine slurries
Protocol: as §1

SMILES: [F][Sn][F] [0.2% by wt. Stannous Fluoride, Stannous Fluoride]
- Average (OCR) (p mole/min) ([1]; Table 3, mixed species biofilm, CBD and stannous fluoride slurries, untreated 11489.9): 10440.7 p mole/min

SMILES: N=C(N)NCCC[C@H](N)C(=O)O [1% Arg, arginine]
- OCR Value (p mole/min) ([2]; Table 4, oxygen consumption rate, untreated 1449.50): 518.58 p mole/min
- ECR Value (mpH/min) ([2]; Table 5, extracellular acidification rate, untreated 701.2): 518.6 mpH/min

SMILES: CC(O)C(=O)[O-].CC(O)C(=O)[O-].[Zn+2] (stereo not shown) [1.5% Zinc Lactate, Zinc Lactate]
- Average (OCR) (p mole/min) ([1]; Table 1, mixed biofilm, CBD and zinc lactate, untreated 25,669.50): 21,900.63 p mole/min

From patent US20240091115A1, “Oral Care Compositions and Methods of Use” (Colgate-Palmolive Company, priority 2019, published 2024)
